What was measured:
Aβ42 = biological target: T1, Aβ42 (Homo sapiens, UniProt P05067); assay: Short term treatment of TgCRND8 mice: Aβ42 levels in plasma and brain (ELISA); type: in vivo, Mouse; conditions: for Aβ42 Change: plasma, TgCRND8 mice
T1 construct: from tissue; host or cells: plasma and brain homogenate of TgCRND8 transgenic mice (hAPP transgene)
Text: (§1) Transgenic mice, […]8, expressing the human amyloid precursor protein (hAPP) develop a pathology resembling Alzheimer's disease. In particular, high levels of Aβ40 and Aβ42 have been documented in the plasma and the brain of these animals at 8-9 weeks of age, followed by early accumulation of amyloid plaques similar to the senile plaques observed in […]. These animals also display progressive cognitive deficits that parallel the appearance of degenerative changes. See, […], et al., J. Biol. Chem. 276, 21562-70 (2001). The short term therapeutic effect of 19 compounds of the invention was studied. […] The following abbreviations are used to designate these animals from the 3rd and 4th generation backcross in the present protocol: TgCRND8-2.B6C3F1 (N3); TgCRND8-2.B6C3F1 (N4). Baseline animals (Group 1) consisted of naive TgCRND8-2.B6C3F1(N3) at 11±1 weeks of age. These mice were used to determine the Aβ levels in the plasma and brain of naive transgenic animals at the initiation of treatment. […] At the end of the treatment periods, plasma and perfused brains were collected for quantification of Aβ levels. […] Plasma samples were immediately frozen and stored at -80° C. pending analysis. The brains were removed, frozen, and stored at -80° C. awaiting analysis. […] Samples were spun at 15000 g for 20 minutes and the supernatants were transferred to fresh tubes. […] The tubes were vortexed for 30 seconds and frozen at -80° C. […] Samples were thawed at room temperature, sonicated at 80° C. for 15 minutes and frozen again. This cycle was repeated 3 times to ensure homogeneity and samples were returned to -80° C. pending analysis. Aβ levels were evaluated in plasma and brain samples by ELISA using Human Aβ40 and Aβ42 Fluorometric ELISA kits from Biosource (Cat. […] In short, samples were thawed at room temperature, sonicated for 5 minutes at 80° C. (sonication for brain homogenates; no sonication for plasma samples) and kept on ice. Aβ peptides were captured using 100 μl of the diluted samples to the plate and incubated without shaking at 4° C. overnight. The samples were aspirated and the wells were rinsed 4 times with wash buffer obtained from the Biosource ELISA kit. The anti-Aβ40 or anti-Aβ42 rabbit polyclonal antiserum (specific for the Aβ40 or Aβ42 peptide) was added (100 μl) and the plate was incubated at room temperature for 2 hours with shaking. The wells were aspirated and washed 4 times before adding 100 μl of the alkaline phosphatase labeled anti-rabbit antibody and incubating at room temperature for 2 hours with shaking. The plates were then rinsed 5 times and the fluorescent substrate (100 μl) was added to the plate. The plate was incubated for 35 minutes at room temperature and the plate was read using a titer plate reader at an excitation wavelength of 460 nm and emission at 560 nm. Compounds were scored based on their ability to modulate levels of Aβ peptides in the plasma and the cerebral soluble/insoluble levels in the brain. Levels of Aβ observed in the plasma and brain of treated animals were normalized using values from vehicle-treated (water) or methylcellulose-treated control groups and ranked according to the strength of the pharmacological effect. Increases in the levels of Aβ peptides are indicated using “+” symbols, while decreases in the levels of Aβ peptides are indicated using “-” symbols. The strongest effects are recorded as “+++” or “---” while the weakest are shown as “+” or “-”.

Aβ40 = biological target: T2, Aβ40 (Homo sapiens, UniProt P05067); assay: Short term treatment of TgCRND8 mice: Aβ40 levels in plasma and brain (ELISA); type: in vivo, Mouse; conditions: for Aβ40 Change: plasma, TgCRND8 mice
T2 construct: from tissue; host or cells: plasma and brain homogenate of TgCRND8 transgenic mice (hAPP transgene)
Text: as §1

[1] = brain homogenate, vehicle group, Day 14, 250 mg/kg daily subcutaneous
[2] = brain homogenate, vehicle group, Day 28, 250 mg/kg daily subcutaneous
[3] = vehicle (water) group, Day 14, 250 mg/kg daily subcutaneous
[4] = vehicle (water) group, Day 28, 250 mg/kg daily subcutaneous
[5] = brain homogenate, methylcellulose group, Day 14, 250 mg/kg daily oral
[6] = brain homogenate, methylcellulose group, Day 28, 250 mg/kg daily oral
[7] = methylcellulose group, Day 14, 250 mg/kg daily oral
[8] = methylcellulose group, Day 28, 250 mg/kg daily oral

T2 sequence (P05067 672-711 limits assumed): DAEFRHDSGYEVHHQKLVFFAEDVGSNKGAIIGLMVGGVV
T1 sequence (P05067 672-713 limits assumed): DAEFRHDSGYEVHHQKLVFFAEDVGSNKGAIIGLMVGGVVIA

Row | SMILES | Aβ42 Change Insoluble (Aβ42; [1]) | Aβ42 Change Soluble (Aβ42; [1]) | Aβ42 Change Insoluble (Aβ42; [2]) | Aβ42 Change Soluble (Aβ42; [2]) | Aβ42 Change (Aβ42; [3]) | Aβ42 Change (Aβ42; [4]) | Aβ40 Change Insoluble (Aβ40; [1]) | Aβ40 Change Soluble (Aβ40; [1]) | Aβ40 Change Insoluble (Aβ40; [2]) | Aβ40 Change (Aβ40; [3]) | Aβ40 Change (Aβ40; [4]) | Aβ40 Change Soluble (Aβ40; [2]) | Aβ42 Change Soluble (Aβ42; [5]) | Aβ40 Change Insoluble (Aβ40; [5]) | Aβ40 Change Soluble (Aβ40; [6]) | also measured
1 | CCCCCCCNCCCS(=O)(=O)O [CX, 3-heptylamino-1-propane-sulfonic acid] | − (Decreases in the levels of Aβ of 5 to 19% are scored as “−”) | + (increases in the levels of Aβ (relative to untreated control) of 20 to 39% are scored as “+”) | +++ (increases of 70% or higher are scored as “+++”) | ++ (increases of 40 to 69% are scored as “++”) | ++ (increases of 40 to 69% are scored as “++”) | + (increases in the levels of Aβ (relative to untreated control) of 20 to 39% are scored as “+”) | − (Decreases in the levels of Aβ of 5 to 19% are scored as “−”) | − (Decreases in the levels of Aβ of 5 to 19% are scored as “−”) | + (increases in the levels of Aβ (relative to untreated control) of 20 to 39% are scored as “+”) | ++ (increases of 40 to 69% are scored as “++”) | ++ (increases of 40 to 69% are scored as “++”) | – | – | – | – | –
2 | CC(CO)NCCCS(=O)(=O)O (centres unmarked) [CW, 3-(1-hydroxy-2-propylamino)-1-propanesulfonic acid] | – | – | – | – | ++ (increases of 40 to 69% are scored as “++”) | + (increases in the levels of Aβ (relative to untreated control) of 20 to 39% are scored as “+”) | – | – | – | ++ (increases of 40 to 69% are scored as “++”) | ++ (increases of 40 to 69% are scored as “++”) | – | – | – | – | Aβ42 Change (total levels) (Aβ42; brain homogenate, vehicle group, Day 28, total Aβ42, soluble and insoluble not measured independently): ++ (increases of 40 to 69% are scored as “++”); Aβ40 Change (total levels) (Aβ40; brain homogenate, vehicle group, Day 28, total Aβ40, soluble and insoluble not measured independently): + (increases in the levels of Aβ (relative to untreated control) of 20 to 39% are scored as “+”)
3 | CCCC(CO)NCCCS(=O)(=O)O (racemic) [Compound CA, 3-[(dl)-1-hydroxy-2-pentyl]amino-1-propane-sulfonic acid] | −− (decreases of 20 to 38% are scored as “−−”) | – | + (increases in the levels of Aβ (relative to untreated control) of 20 to 39% are scored as “+”) | + (increases in the levels of Aβ (relative to untreated control) of 20 to 39% are scored as “+”) | +++ (increases of 70% or higher are scored as “+++”) | +++ (increases of 70% or higher are scored as “+++”) | − (Decreases in the levels of Aβ of 5 to 19% are scored as “−”) | + (increases in the levels of Aβ (relative to untreated control) of 20 to 39% are scored as “+”) | ++ (increases of 40 to 69% are scored as “++”) | +++ (increases of 70% or higher are scored as “+++”) | +++ (increases of 70% or higher are scored as “+++”) | + (increases in the levels of Aβ (relative to untreated control) of 20 to 39% are scored as “+”) | – | – | – | –
4 | CCCCCCCCNCCCS(=O)(=O)O [CZ, 3-octylamino-1-propanesulfonic acid] | – | – | – | – | – | – | – | – | – | – | – | – | −−− (decreases of 39% or more are scored as “−−−”) | −− (decreases of 20 to 38% are scored as “−−”) | − (Decreases in the levels of Aβ of 5 to 19% are scored as “−”) | Aβ42 Change Insoluble (Aβ42; [5]): −−− (decreases of 39% or more are scored as “−−−”); Aβ42 Change Insoluble (Aβ42; [6]): −− (decreases of 20 to 38% are scored as “−−”); Aβ42 Change Soluble (Aβ42; [6]): − (Decreases in the levels of Aβ of 5 to 19% are scored as “−”); Aβ42 Change (Aβ42; [7]): − (Decreases in the levels of Aβ of 5 to 19% are scored as “−”); Aβ42 Change (Aβ42; [8]): − (Decreases in the levels of Aβ of 5 to 19% are scored as “−”); Aβ40 Change Soluble (Aβ40; [5]): − (Decreases in the levels of Aβ of 5 to 19% are scored as “−”); Aβ40 Change (Aβ40; [7]): − (Decreases in the levels of Aβ of 5 to 19% are scored as “−”)
5 | O=S(=O)(O)CCCNCCc1c[nH]c2ccccc12 [Compound BT, 3-{[2-(3-indolyl)ethyl]-amino}-1-propanesulfonic acid] | – | – | – | – | – | – | – | – | – | – | – | – | ++ (increases of 40 to 69% are scored as “++”) | +++ (increases of 70% or higher are scored as “+++”) | −− (decreases of 20 to 38% are scored as “−−”) | Aβ42 Change Soluble (Aβ42; [6]): ++ (increases of 40 to 69% are scored as “++”); Aβ40 Change Insoluble (Aβ40; [6]): ++ (increases of 40 to 69% are scored as “++”)
6 | NCCSS(=O)(=O)O [BE] | +++ (increases of 70% or higher are scored as “+++”) | +++ (increases of 70% or higher are scored as “+++”) | +++ (increases of 70% or higher are scored as “+++”) | +++ (increases of 70% or higher are scored as “+++”) | +++ (increases of 70% or higher are scored as “+++”) | +++ (increases of 70% or higher are scored as “+++”) | – | + (increases in the levels of Aβ (relative to untreated control) of 20 to 39% are scored as “+”) | − (Decreases in the levels of Aβ of 5 to 19% are scored as “−”) | ++ (increases of 40 to 69% are scored as “++”) | +++ (increases of 70% or higher are scored as “+++”) | + (increases in the levels of Aβ (relative to untreated control) of 20 to 39% are scored as “+”) | – | – | – | –
7 | CCCCCCCCCNCCCS(=O)(=O)O [DA, 3-nonylamino-1-propanesulfonic acid] | – | – | – | – | – | – | – | – | – | – | – | – | −− (decreases of 20 to 38% are scored as “−−”) | −−− (decreases of 39% or more are scored as “−−−”) | −− (decreases of 20 to 38% are scored as “−−”) | Aβ42 Change Insoluble (Aβ42; [5]): −− (decreases of 20 to 38% are scored as “−−”); Aβ42 Change Insoluble (Aβ42; [6]): −− (decreases of 20 to 38% are scored as “−−”); Aβ42 Change (Aβ42; [7]): + (increases in the levels of Aβ (relative to untreated control) of 20 to 39% are scored as “+”); Aβ42 Change (Aβ42; [8]): + (increases in the levels of Aβ (relative to untreated control) of 20 to 39% are scored as “+”); Aβ40 Change Soluble (Aβ40; [5]): − (Decreases in the levels of Aβ of 5 to 19% are scored as “−”); Aβ40 Change Insoluble (Aβ40; [6]): −− (decreases of 20 to 38% are scored as “−−”)
8 | CCCCCNCCCS(=O)(=O)O [CF, 3-pentylamino-1-propanesulfonic acid] | −− (decreases of 20 to 38% are scored as “−−”) | − (Decreases in the levels of Aβ of 5 to 19% are scored as “−”) | + (increases in the levels of Aβ (relative to untreated control) of 20 to 39% are scored as “+”) | – | – | – | − (Decreases in the levels of Aβ of 5 to 19% are scored as “−”) | ++ (increases of 40 to 69% are scored as “++”) | – | – | – | + (increases in the levels of Aβ (relative to untreated control) of 20 to 39% are scored as “+”) | – | – | – | –
9 | CC[C@@H](CO)NCCCS(=O)(=O)O [CU, (S)-3-(1-hydroxy-2-butylamino)-1-propanesulfonic acid] | − (Decreases in the levels of Aβ of 5 to 19% are scored as “−”) | ++ (increases of 40 to 69% are scored as “++”) | +++ (increases of 70% or higher are scored as “+++”) | ++ (increases of 40 to 69% are scored as “++”) | – | + (increases in the levels of Aβ (relative to untreated control) of 20 to 39% are scored as “+”) | – | + (increases in the levels of Aβ (relative to untreated control) of 20 to 39% are scored as “+”) | +++ (increases of 70% or higher are scored as “+++”) | – | + (increases in the levels of Aβ (relative to untreated control) of 20 to 39% are scored as “+”) | – | – | – | – | –
